This is an account of results in patent US4248882A, “Treating diabetes-associated complications with hydantoin amines” (Pfizer Inc., priority 1980, dated 1981).

The test system of test [1] is sorbitol accumulation in the sciatic nerve. Briefly: inhibition of sorbitol accumulation in the sciatic nerve of streptozotocinized (diabetic) rats. In kind it is in vivo. Conditions: oral 0.25 mg/kg at 4, 8 and 24 hours following streptozotocin; sorbitol in sciatic nerves measured 27 hours after induction of diabetes; versus untreated animal. As for the experimental part:
The compounds of Example 2 and 4 were tested for their ability to reduce or inhibit sorbitol accumulation in the sciatic nerve of streptozotocinized (i.e. diabetic) rats by the procedure essentially described in U.S. Pat. No. 3,821,383. In the present study, the amount of sorbitol accumulation in the sciatic nerves was measured 27 hours after induction of diabetes. The compounds were administered orally at the dose levels of 0.25 mg/kg at 4, 8 and 24 hours following the administration of streptozotocin. The results obtained in this manner are presented below in terms of percent inhibition (%) afforded by the test compound as compared to the case where no compound was administered (i.e. the untreated animal, where sorbitol levels normally rise from approximately […]. tissue to as high as 400 mM/g. tissue in the 27 hour test period): […]

The test system of test [2] is aldose reductase. Nature of the test: inhibition of aldose reductase enzyme activity (partially purified enzyme from human placenta). It counts as biochemical. Conditions: percent inhibition of enzyme activity. As to the method:
The compounds of Example 2 and 4 were tested for their ability to reduce or inhibit aldose reductase enzyme activity, following the procedure described in U.S. Pat. No. 3,821,383 and based on the procedure of Hayman et. al., Journal of Biological Chemistry, 240 877 (1965). The substrate employed was partially purified aldose reductase enzyme obtained from human placenta. The results obtained with each compound at a concentration of 10^-6 M are expressed as percent inhibition of enzyme activity.

The term % Inhibition denotes the percentage by which the read-out fell short of the control. A high value points to a strong effect.

Counter-ions that a name gives are not always drawn.

Regarding `Nc1cc(Cl)cc2c1OCCC21NC(=O)NC1=O` (stereo not shown) [Example 2, 8-Amino-6-chloro-spiro[4H-2,3-dihydro-1-benzopyran-4,4'-imidazolidine]-2',5'-dione hydrochloride], in test [1], the “% Inhibition at 0.25 mg/kg” value worked out at 17%. Also, the “% Inhibition at 10^-6 M” value in test [2] came out at 58%.
Regarding `Nc1cc(F)cc2c1OCC[C@]21NC(=O)NC1=O` [Example 4, 4S-8-amino-6-fluoro-spiro[4H-2,3-dihydro-1-benzopyran-4,4'-imidazolidine]-2',5'-dione hydrochloride], the “% Inhibition at 0.25 mg/kg” value in test [1] is listed as 40%. Further, in test [2], the “% Inhibition at 10^-6 M” value worked out at 40%.
